# Reference: patent US20180256495A1 (MEDRx Co., Ltd., priority 2008, published 2018)
# Like-named read-outs stand apart in the source and are kept apart here.
# Experiments:
# [1] = Evaluation test of transdermal absorbability (skin penetrability) with a Franz diffusion cell; assay type: in vitro ADME; conditions: free basic drug, liquid preparation 2 w/w %, rat skin, 32° C.
# [2] = cited from earlier work; for logP of organic acid (calc.) / Log P of organic acid (calc.) / logP (Log P of organic acid, Calculated): organic acid itself; for logP (calc.): basic drug itself, value published in PubMed; for log P: lipid solubility of the named drug or organic acid itself
# [3] = State of the liquid preparation (precipitation, homogeneity, solubility or dispersion of the salt)
# [4] = stated in brackets in the synthesis examples; cited from earlier work
# [5] = wrapped cell, full remark: tendency of salt to be divided into two layers
Compound,Penetrated Amount (amount of skin-penetrated drug during 3 hours) [1] [μg/cm^2],Log P of organic acid (calc.) ([2]; value from PubMed),"logP (Log P of organic acid, Calculated) ([2]; value from PubMed)",logP of organic acid (calc.) ([2]; value from PubMed),also measured
CN(C)CCCN1c2ccccc2CCc2ccccc21 [imipramine],10,,,,
CC(C)CCCCCCCCCCCCCCC(=O)O [isostearic acid],,7,7,7,logP of organic acid (calc.) [2]: 7
CC(=O)Oc1ccccc1C(=O)O [acetylsalicylic acid],,,1.4,,
CCCCCCCC(=O)O [octanoic acid],,3,,3,logP of organic acid (calc.) [2]: 3
"COc1cccc(C2(O)CCCCC2CN(C)C)c1 (stereo not drawn) [tramadol, reference compound]",122,,,,logP (calc.) [2]: 2.4; log P [2]: 2.4
"Cc1ccc(C(=O)C(C)CN2CCCCC2)cc1 (stereo not drawn) [tolperisone, reference compound]",26,,,,logP (calc.) [2]: 3.1
"CCc1ccc(C(=O)C(C)CN2CCCCC2)cc1 (stereo not drawn) [eperisone, reference compound]",14,,,,logP (calc.) [2]: 3.6
CC(O)CC(=O)O (stereo not drawn) [3-hydroxybutyric acid],,,−0.5,,
COCC(=O)O [methoxyacetic acid],,−0.6,−0.6,−0.6,"logP of organic acid (calc.) [2]: −0.6; Remarks (state of the liquid preparation) ([3]; morphine 2 w/w % liquid preparation with the row's acid, wrapped cell 'small amount of' + 'precipitation' = small amount of white precipitation remained): homogeneous solution"
CC(=O)CCC(=O)O [levulinic acid],,−0.4,−0.4,−0.4,logP of organic acid (calc.) [2]: −0.4
O=C(O)c1ccc(O)cc1 [p-hydroxybenzoic acid],,,1.2,,
CCCCC(CC)C(=O)O (stereo not drawn) [2-ethylhexanoic acid],,,2.7,,
"CN(C)CCC=C1c2ccccc2CCc2ccccc21 [amitriptyline, reference compound]",7,,,,logP (calc.) [2]: 4.9; log P [2]: 4.9
"CC(C)=CCN1CCC2(C)c3cc(O)ccc3CC1C2C (stereo not drawn) [pentazocine, reference compound]",40,,,,pKa [4]: 8.0; logP (calc.) [2]: 3.7; log P [2]: 3.7
O=C(O)c1ccccc1O [salicylic acid],,2.4,2.4,2.4,
CC(=O)NCC(=O)O [N-acetylglycine],,−3.1,,,logP of organic acid (calc.) [2]: −3.1
CCC(=O)O [propionic acid],,0.2,,0.2,
"CC(O)C(=O)O.CCN(CC)CC(=O)Nc1c(C)cccc1C [Lactic acid salt of lidocaine, lactic acid salt of lidocaine]",,,,,"Remarks, Test Example 7: 2% liquid preparation (solvent system) ([3]; wrapped cell, full remark: homogeneously dispersed solution): homogeneously; Remarks, Example 13: 20% viscous liquid preparation (liquid paraffin) [3, 5]: tendency of salt to; Remarks, Example 14: 20% viscous liquid preparation (solvent + liquid paraffin) [3, 5]: tendency of salt to"
